What was measured:
Assay type in all cases: cell-based
[1] = tested on: iBMELCs (human iPS cell-derived brain microvascular endothelial-like cells); assay: Transendothelial electrical resistance (TEER) of iBMELCs induced to differentiate from iEPCs under varied medium and coating conditions; conditions: FIG. 6
Text: iEPCs were induced to differentiate into iBMELCs under conditions where the coating agent and the additive added to the culture medium each varied. For coating the culture dish, as described above, two components of FBN and COL4, or three components obtained by adding any one component of VTN-N, LN221, LN411F, and LN511F to these two components, or four components obtained by adding LN411F and LN511F to these two components were used. As the third component, Laminin211, Laminin411, Laminin511, Agrin, Laminin-mix, Laminin-fragment mix, or hep ex was also used. […]
In order to examine the effect of cryopreserving iEPCs induced to differentiate from hiPSCs, the difference in transendothelial electrical resistance (TEER value) was compared between the presence and absence of freezing. A frozen group, in which iEPCs on day 14 of differentiation were frozen and thawed by the above-described method, and a unfrozen group of unfrozen iEPCs on day 14 of differentiation were induced to differentiate into iBMELCs by the above-described method while using the above-described differentiation-inducing condition A, and the TEER value was then measured. […] As used herein, the “maximum TEER value” means the maximum value among the TEER values measured on each day from day 2 after seeding to day 10 after seeding. […]

[2] = tested on: iBPCs (human iPS cell-derived brain pericytes); assay: Brain pericyte marker gene expression in iBPCs by RT-q PCR; conditions: FIG. 20; 1 μM A 83-01 from day 8, iBPCs on day 12 of differentiation
Protocol: (§1) The above-described hiPSCs were used and induced to differentiate into iBPCs. Human iPS cells cultured in mTeSR plus medium were detached by using TrypLE Select, seeded on a VTN-N-coated culture dish at a density of 2×10^4 cells/cm^2, and then cultured in mTeSR plus medium containing 10 μM of Y-27632 (manufactured by Focus Biomolecules) for 24 hours. Thereafter, the cells were cultured for 1 day in modified DMEM/F12 medium (DMEM/F12 containing 0.1% chemically defined lipid concentrate, 0.1×insulin-transferrin-selenium (from Thermo Fisher Scientific), 2 mM GlutaMAX (from Sigma-Aldrich), […] 1-thioglycerol (from Sigma-Aldrich), 50 μg/mL of L-ascorbic acid phosphate magnesium salt n-hydrate, and 1×penicillin-streptomycin solution) supplemented with 5 μM CHIR-99021 (manufactured by Focus Biomolecules). Next, the cells were cultured for 1 day in modified DMEM/F12 medium containing 50 ng/mL of FGF2. […]
The expression level of each brain pericyte marker gene was analyzed by RT-q PCR. […] Relative expression levels of mRNA in X (+) and X (−) were determined while the expression level of mRNA in hPCs was set to 1 as a reference. […]

[3] = tested on: iBPCs (human iPS cell-derived brain pericytes); assay: Brain pericyte marker protein expression in iBPCs by immunostaining; conditions: FIGS. 21 and 22; 1 μM A 83-01 in differentiation medium
Protocol: as §1, with “FGF2. Then, the cells were cultured for 2 days in EGM-2 medium (EGM-2 basal medium containing 2% FBS, 0.2 μg/mL hydrocortisone, 10 ng/mL FGF2, 20 ng/mL R3-IGF-1, 1 μg/mL ascorbic acid, 5 ng/mL hEGF, gentamicin, and amphotericin B) supplemented with 50 ng/mL PDGF-BB and 0.5 ng/mL VEGF. During this time, the medium was changed every day. On day 4, cells treated with 10 μM Y-27632 for 1 hour were dissociated using TrypLE Select, subcultured on a new VTN-N-coated culture dish at 1.25×10^4 cells/cm^2, and then induced to differentiate in an EGM-2 medium containing 50 ng/mL PDGF-BB. During this time, the medium was changed every day. On day 8 of differentiation, the cells were induced to differentiate in an EGM-2 medium containing 50 ng/mL PDGF-BB, and 1 μM A 83-01. During this time, the medium was changed every day.” for “FGF2.”
iBPCs (X(+) and X(−)) induced to differentiate from hiPSCs by the above method were analyzed by immunostaining in order to check the properties as BPCs. […] After that, the cells were washed three times with D-PBS (−), and then analyzed with an Operetta High-Content Imaging System (manufactured by PerkinElmer). […]

[4] = tested on: iBPCs (human iPS cell-derived brain pericytes); assay: Cell scratch test of cell migration ability and proliferation potential of iBPCs; conditions: FIGS. 23 and 24
Protocol: as §1
Samples used were iBPCs (X (+)) induced to differentiate by adding A 83-01 in the above method and iBPCs (X (−)) induced to differentiate without adding A 83-01 in the above method. […] How the cells migrated 0, 12, and 24 hours of culture after cell scratching was checked by bright field observation, and the scratched area was calculated by Image J.

Cc1cccc(-c2nn(C(=S)Nc3ccccc3)cc2-c2ccnc3ccccc23)n1 [A 83-01]
maximum TEER value (barrier function of iBMELCs) at content of 1 μM ([1]; 1 μM vs 10 μM): high barrier function equivalent to the case of the content of 10 μM | maximum TEER value (barrier function of iBMELCs), added vs not added ([1]; 0.1, 1 or 10 μM in HE-SFM with 20 ng/mL FGF2 and 7.5% B27s, FBN+COL4 coating): the barrier function of iBMELCs was higher than that when A 83-01 was not added | relative mRNA expression level of α-SMA (human primary pericytes = 1) [2]: suppress the gene expression of α-SMA to the same extent as that of human primary pericytes | expression of NG2 (relative average fluorescence intensity, X (−) = 1) [3]: did not significantly affect | expression of PDGFR-β (relative average fluorescence intensity, X (−) = 1) [3]: did not significantly affect | protein expression of α-SMA (relative average fluorescence intensity, X (−) = 1) [3]: suppress the protein expression of α-SMA | cell migration ability and proliferation potential of iBPCs ([4]; X (+) vs X (−)): enhance the cell migration ability and proliferation potential of iBPCs | relative distance of the cell scratch portion (0 hour = 1) ([4]; iBPCs (X (+)), 24 hours after cell scratching, number of samples 1): 0
